# Test results: US20240190865A1, “T-TYPE CALCIUM CHANNEL ANTAGONISTS AND USES THEREOF” (THE BOARD OF TRUSTEES OF THE LELAND STANFORD JUNIOR …, priority 2021, published 2024)
# Target: Cav3.2 (Homo sapiens (Human), UniProt O95180)
# Test: In vitro patch clamp assay (SyncroPatch 384PE)
# Type: cell-based
# Conditions: HEK293 cells
# Description: Patch clamp assays were performed at Charles River. HEK293 cells were cultured in Dulbecco's Modified Eagle Medium/Nutrient Mixture F-12 (D-MEM/F-12) supplemented with 10% fetal bovine serum, 100 U/mL penicillin G sodium, 100 μg/mL streptomycin sulfate and 500 μg/mL G418. Before testing, cells in culture dishes were washed twice with Hank's Balanced Salt Solution, treated with Accutase™ and re-suspended in the culture media (˜20×10^6 cells in 20 mL). Cells in suspension were allowed to recover for 10 minutes in tissue culture incubator set at 37° C. in a humidified 95% air: 5% CO2 atmosphere. Immediately before use in the SyncroPatch 384PE system (SP384PE), the cells were washed twice in extracellular buffer (HB-PS) to remove the culture medium and re-suspended in 20 mL of HB-PS. Extracellular buffer was loaded into the wells of Nanion 384-well Patch Clamp (NPC-384, 4×M) chip (60 μL per well). Then, cell suspension was pipetted into the wells (20 μL per well) of the chip. After establishment of the whole-cell configuration, membrane currents were recorded using patch clamp amplifier in the SP384PE system.
# Cav3.2, sequence (O95180 whole entry): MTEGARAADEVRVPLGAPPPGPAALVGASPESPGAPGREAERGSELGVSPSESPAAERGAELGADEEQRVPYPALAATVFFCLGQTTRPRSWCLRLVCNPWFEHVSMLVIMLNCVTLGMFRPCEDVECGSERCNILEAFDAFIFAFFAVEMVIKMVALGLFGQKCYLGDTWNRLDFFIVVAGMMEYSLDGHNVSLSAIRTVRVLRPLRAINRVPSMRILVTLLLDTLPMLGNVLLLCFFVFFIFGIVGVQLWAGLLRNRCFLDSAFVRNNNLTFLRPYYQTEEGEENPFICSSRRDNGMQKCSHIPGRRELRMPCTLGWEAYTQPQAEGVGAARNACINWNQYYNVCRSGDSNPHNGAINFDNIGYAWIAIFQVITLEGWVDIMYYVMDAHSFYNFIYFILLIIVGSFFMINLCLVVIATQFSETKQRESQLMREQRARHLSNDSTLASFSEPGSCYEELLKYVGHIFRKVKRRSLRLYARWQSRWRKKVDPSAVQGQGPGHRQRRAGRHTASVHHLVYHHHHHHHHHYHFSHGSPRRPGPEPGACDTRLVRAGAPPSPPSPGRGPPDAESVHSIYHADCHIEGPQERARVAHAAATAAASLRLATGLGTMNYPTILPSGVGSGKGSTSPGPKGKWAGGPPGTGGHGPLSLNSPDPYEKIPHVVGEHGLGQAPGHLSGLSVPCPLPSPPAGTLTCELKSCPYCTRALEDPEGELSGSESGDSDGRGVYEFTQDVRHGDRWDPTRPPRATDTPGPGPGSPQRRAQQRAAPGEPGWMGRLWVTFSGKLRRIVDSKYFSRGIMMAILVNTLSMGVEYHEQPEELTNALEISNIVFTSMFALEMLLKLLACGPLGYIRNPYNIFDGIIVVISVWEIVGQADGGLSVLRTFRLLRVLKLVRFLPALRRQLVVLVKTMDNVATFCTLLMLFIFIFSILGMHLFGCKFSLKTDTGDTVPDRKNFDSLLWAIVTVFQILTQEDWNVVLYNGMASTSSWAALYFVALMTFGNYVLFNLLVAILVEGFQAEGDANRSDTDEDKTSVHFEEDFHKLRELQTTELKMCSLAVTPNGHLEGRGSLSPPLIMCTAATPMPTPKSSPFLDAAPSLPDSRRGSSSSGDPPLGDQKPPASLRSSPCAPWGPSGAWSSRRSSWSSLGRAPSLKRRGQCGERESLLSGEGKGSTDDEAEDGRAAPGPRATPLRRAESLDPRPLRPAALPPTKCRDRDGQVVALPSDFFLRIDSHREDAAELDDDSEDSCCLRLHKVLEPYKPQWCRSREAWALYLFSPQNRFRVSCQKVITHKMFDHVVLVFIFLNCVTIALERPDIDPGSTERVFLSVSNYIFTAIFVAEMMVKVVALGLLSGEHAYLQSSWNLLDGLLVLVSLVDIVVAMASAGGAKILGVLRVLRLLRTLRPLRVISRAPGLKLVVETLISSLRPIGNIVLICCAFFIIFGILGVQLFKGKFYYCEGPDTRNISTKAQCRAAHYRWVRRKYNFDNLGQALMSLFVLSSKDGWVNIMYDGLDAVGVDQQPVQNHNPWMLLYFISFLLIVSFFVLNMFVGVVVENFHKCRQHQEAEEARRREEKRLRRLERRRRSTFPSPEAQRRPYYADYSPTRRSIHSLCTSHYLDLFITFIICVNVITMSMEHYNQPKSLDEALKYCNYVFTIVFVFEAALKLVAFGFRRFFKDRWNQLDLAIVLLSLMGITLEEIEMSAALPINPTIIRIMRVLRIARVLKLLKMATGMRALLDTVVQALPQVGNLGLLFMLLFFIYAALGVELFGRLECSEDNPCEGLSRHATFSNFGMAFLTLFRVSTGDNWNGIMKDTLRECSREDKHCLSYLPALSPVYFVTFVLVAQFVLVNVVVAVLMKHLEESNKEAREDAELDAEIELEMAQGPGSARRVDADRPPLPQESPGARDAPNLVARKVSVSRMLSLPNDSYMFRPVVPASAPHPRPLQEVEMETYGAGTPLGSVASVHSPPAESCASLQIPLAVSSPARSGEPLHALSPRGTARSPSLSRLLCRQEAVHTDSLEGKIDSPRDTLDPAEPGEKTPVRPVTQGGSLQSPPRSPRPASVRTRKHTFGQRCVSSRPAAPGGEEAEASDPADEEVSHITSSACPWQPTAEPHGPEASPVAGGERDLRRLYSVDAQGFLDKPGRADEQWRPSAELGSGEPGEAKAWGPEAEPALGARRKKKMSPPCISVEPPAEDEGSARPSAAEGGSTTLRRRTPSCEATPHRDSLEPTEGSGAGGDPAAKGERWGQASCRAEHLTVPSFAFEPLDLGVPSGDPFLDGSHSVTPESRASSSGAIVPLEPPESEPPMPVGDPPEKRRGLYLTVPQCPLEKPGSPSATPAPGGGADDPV
row,SMILES,IC50
1,"C[C@@H](NC(=O)Cc1ccc(C2(C(F)(F)F)CC2)cc1)c1cc2cnn(C)c2cn1 [Example 12, (R)—N-(1-(1-methyl-1H-pyrazolo[3,4-c]pyridin-5-yl)ethyl)-2-(4-(1-(trifluoromethyl)cyclopropyl)phenyl)acetamide]",0.647 µM
2,"Cc1noc2cc([C@@H](C)NC(=O)Cc3ccc(C(C)C)cc3)ncc12 [Example 5, (R)-2-(4-isopropylphenyl)-N-(1-(3-methylisoxazolo[4,5-c]pyridin-6-yl)ethyl)acetamide]",1.22 µM
3,"CC(C)c1ccc(CC(=O)N[C@H](C)c2cc3cnn(C)c3cn2)cc1 [Example 1, (R)-2-(4-isopropylphenyl)-N-(1-(1-methyl-1H-pyrazolo[3,4-c]pyridin-5-yl)ethyl)acetamide]",0.522 µM
4,"C[C@@H](NC(=O)Cc1cnc(C2CC2)c(F)c1)c1cc2cnn(CC(F)(F)F)c2cn1 [Example 39, (R)-2-(6-cyclopropyl-5-fluoropyridin-3-yl)-N-(1-(1-(2,2,2-trifluoroethyl)-1H-pyrazolo[3,4-c]pyridin-5-yl)ethyl)acetamide]",0.519 µM
5,"C[C@@H](NC(=O)Cc1ccc(C2CC2)cn1)c1cc2cnn(CC(F)(F)F)c2cn1 [Example 34, (R)-2-(5-cyclopropylpyridin-2-yl)-N-(1-(1-(2,2,2-trifluoroethyl)-1H-pyrazolo[3,4-c]pyridin-5-yl)ethyl)acetamide]",> 10 µM
6,"CC(C)c1ccc(CC(=O)N[C@H](C)c2cc3c(cn2)cnn3C)cc1 [Example 3, (R)-2-(4-isopropylphenyl)-N-(1-(1-methyl-1H-pyrazolo[4,3-c]pyridin-6-yl)ethyl)acetamide]",> 10 µM

# These reach a lower IC50. Values come first.
row,IC50,SMILES
1,0.411 µM,"C[C@@H](NC(=O)Cc1ccc(C(F)(F)F)cc1)c1cc2ccn(CC(F)(F)F)c2cn1 [Example 51, (R)—N-(1-(1-(2,2,2-trifluoroethyl)-1H-pyrrolo[2,3-c]pyridin-5-yl)ethyl)-2-(4-(trifluoromethyl)phenyl)acetamide]"
2,0.11 µM,"CCCn1ncc2cc([C@@H](C)NC(=O)Cc3ccc(C(C)C)cc3)ncc21 [Example 7, (R)-2-(4-isopropylphenyl)-N-(1-(1-propyl-1H-pyrazolo[3,4-c]pyridin-5-yl)ethyl)acetamide]"
3,0.335 µM,"[2H][C@](C)(NC(=O)Cc1ccc(C(F)(F)F)cc1)c1cc2cnn(CC(F)(F)F)c2cn1 [Example 55, (R)—N-(1-(1-(2,2,2-trifluoroethyl)-1H-pyrazolo[3,4-c]pyridin-5-yl)ethyl-1-d)-2-(4-(trifluoromethyl)phenyl)acetamide]"
4,0.214 µM,"C[C@@H](NC(=O)Cc1ccc(C(F)(F)F)c(Cl)c1)c1cc2cnn(CC(F)(F)F)c2cn1 [Example 43, (R)-2-(3-chloro-4-(trifluoromethyl)phenyl)-N-(1-(1-(2,2,2-trifluoroethyl)-1H-pyrazolo[3,4-c]pyridin-5-yl)ethyl)acetamide]"
5,0.037 µM,"CC(C)c1ccc(CC(=O)N[C@H](C)c2ccc(OCC(F)(F)F)cn2)cc1 [Example 56, 2-(4-isopropylphenyl)-N-[(1R)-1-(5-(2,2,2-trifluoroethoxy)pyridin-2-yl)ethyl]acetamide]"
6,0.071 µM,"C[C@@H](NC(=O)Cc1ccc(C2(C(F)(F)F)CC2)cc1)c1cc2cnn(CC(F)(F)F)c2cn1 [Example 44, (R)—N-(1-(1-(2,2,2-trifluoroethyl)-1H-pyrazolo[3,4-c]pyridin-5-yl)ethyl)-2-(4-(1-(trifluoromethyl)cyclopropyl)phenyl)acetamide]"
7,0.389 µM,"C[C@@H](NC(=O)Cc1ccc(C(C)(F)F)c(C#N)c1)c1cc2cnn(CC(F)(F)F)c2cn1 [Example 52, (R)-2-(3-cyano-4-(1,1-difluoroethyl)phenyl)-N-(1-(1-(2,2,2-trifluoroethyl)-1H-pyrazolo[3,4-c]pyridin-5-yl)ethyl)acetamide]"
8,0.097 µM,"C[C@@H](NC(=O)Cc1ccc(C2(C(F)(F)F)CC2)nc1)c1ccc(OCC(F)(F)F)cn1 [Example 59, (R)—N-(1-(5-(2,2,2-trifluoroethoxy)pyridin-2-yl)ethyl)-2-(6-(1-(trifluoromethyl)cyclopropyl)pyridin-3-yl)acetamide]"
